Results taken from ChEMBL document CHEMBL3393059, “Optimisation of in silico derived 2-aminobenzimidazole hits as unprecedented selective kappa opioid receptor agonists” (Bioorg Med Chem Lett, 2015).

What was measured:
Format in all cases: ADME, organism-based
Set-up in all cases: dose 30 mg/kg, route oral
[1] = AUC (0 to time) in mouse at 30 mg/kg, po; conditions: plasma
[2] = Cmax in mouse at 30 mg/kg, po; conditions: in vivo
[3] = Half life in mouse at 30 mg/kg, po; conditions: in vivo

CN(C(=O)C(c1ccccc1)c1ccccc1)[C@H](CN1CC[C@H](O)C1)c1ccccc1 [ASIMADOLINE]
AUC [1]: 493 ng·h/mL
Cmax [2]: 507 ng/mL
half-life [3]: 30 min
